According to a melting point compilation (Tetko et al.; mined from patent text by program, amines drawn as free bases though some values may be those of a salt):

| melting point [°C] | Compound |
| --- | --- |
| 202 to 203 | BrCc1ccc2sc3ccc4ccccc4c3c2c1 |
| 190 to 192 | CCOC(=O)c1cnc(-c2ccc(OC)cc2OC)[nH]c1=O |
| 75 to 78 | CN(C(=O)c1ccccn1)c1cccc(F)c1 |
| 110 to 121 | NS(=O)(=O)c1ccc(-c2c(-c3ccccc3)noc2COCCO)cc1 |
| 90 | CCN(CC)C(=O)CCc1nc(-c2ccccc2Cl)nc2ccccc12 |
| 282 to 283 | COc1cc(Nc2c(C#N)cnc3cc(-c4ccc(C(=O)O)cc4)ccc23)c(Cl)cc1Cl |
| 98 to 100 | CCOC(=O)/C=C(/c1ccc(OC)cc1)c1cc(Cl)ccc1Cl |
| 168 to 170 | CN1CCN(c2ccc(Nc3nc(N)c(C(=O)c4c(F)cccc4F)s3)cc2)CC1 |
| 204 to 207 | COc1cccc2c1C=C(C(=O)O)C(CC(F)(F)F)O2 (stereo unspecified) |
| 181 to 183 | COc1ccc(-n2cnc3c(-c4ccc(C(F)(F)F)cc4F)ncnc32)cc1 |
| 77.5 to 77.9 | CCCCCCCC(=O)Oc1ccc(-c2ccc(C#N)cc2)cc1 |
| 54 to 55 | FCC1(CF)OC1(CBr)c1cc(C(F)(F)F)ccc1Cl (stereo unspecified) |
| 232 to 235 | C/C(=C\c1ccc(C(=O)O)cc1)c1ccc2c(c1)CC(C)(C)CC(C)(C)C2 |
| 167 to 168 | CC1CC(=O)NN=C1c1ccc(-n2ccc(CN(C)C)c2)cc1 (stereo unspecified) |
| 245 to 248 | O=C(Nc1ccc(-c2ccc(C(=O)O)cc2)cc1)OCC1c2ccccc2-c2ccccc21 |
| 69.5 to 72.5 | CCOC(=O)c1ccc(NCCCCCCc2ccccc2)cc1 |
| 161 to 162 | COCCOCCn1cc(C(=O)NCc2ccc(Cl)cc2)c(=O)c2cc(CO)ccc21 |
| 143 to 145 | Cc1cc(N2CCN(c3c(C)c(C)c4c(c3C)CC(C)(C)O4)CC2)ccc1F |
| 222 to 225 | CC(C)c1cccc(C(C)C)c1NC(=O)Nc1ccc(Oc2ccc3nc(COc4ccc(CC5SC(=O)NC5=O)cc4)n(C)c3c2)cc1 (stereo unspecified) |

| melting point [°C] | Compound |
| --- | --- |
| 204 to 206 | CCCn1nc2c(N)nc3ccccc3c2c1CCCCN1C(=O)c2ccccc2C1=O |
| 171 to 173 | CC(C)CCc1c(-c2ccc(S(N)(=O)=O)cc2)cnn(-c2ccc(F)c(F)c2)c1=O |
| 97.6 to 98.8 | O=[N+]([O-])c1cccc(Oc2ccc(-c3ccccc3)cc2)c1 |
| 198 | CS(=O)c1ccc(-c2nn(Cc3ccccc3)c(=O)cc2-c2ccc(F)cc2)cc1 (stereo unspecified) |
| 141 to 143 | CCc1cc(C(=O)c2ccccc2Cl)c(-n2c(C)nnc2CNC(=O)Nc2ccccc2)s1 |
| 234 to 235 | O=C1COc2ccc(C3=Nn4cnnc4SC3c3ccccc3Cl)cc2N1 (stereo unspecified) |
| 252 to 255 | CCCC1(CCC)c2ccccc2-c2cc(NC(=O)c3cc4oc5ccccc5c4cc3OC)c(O)cc21 |
| 206 | O=C(Nc1ccccn1)c1nc2ccccc2[nH]1 |
| 142 to 143 | Cc1c(CNCC(C)C)n(C)c2ccc(NC(=O)c3ccc(OCC4CC4)cc3)cc12 |
| 189 to 192 | CCn1cc(C(=O)NCc2ccc(Cl)cc2)c(=O)c2sccc21 |
| 263 to 266 | CSc1ccc(-c2nc3[nH]nc(N)c3c(=O)n2-c2ccc(C)c(C)c2)cc1 |
| 228 | O=C(N[C@H]1CC[C@H](CCN2CCC(c3cccc4c3CCO4)CC2)CC1)c1ccc(C(F)(F)F)cc1 |
| 218 | COc1ccc(CNc2nc(CCC(=O)O)nc3sc4ccccc4c23)cc1Cl |
| 103 to 104 | Cn1c(C(F)(F)F)ccc(-c2ccc(Cl)cc2F)c1=O |
| 115 to 117 | Cc1ccc(C(O)(c2ccc(C)cc2)C2CCN(Cc3ccccc3)CC2)cc1 |
| 254 to 256 | N#Cc1cccc(NCC(=O)Nc2c(Cl)ccc3nc(N4CC[C@@H](O)C4)ccc23)c1 |
| 142 to 143 | Nc1cc(-n2cc(C(=O)O)c(=O)c3cc([N+](=O)[O-])c(F)c(F)c32)c(F)cc1F |
| 87.5 to 89 | CN(C)CCOc1ccc2c(=O)c3ccc(OCCN(C)C)cc3oc2c1 |
| 189 to 190 | CC(C)n1nc(-c2cc(-n3cccc3)cnc2-c2ccccc2)ccc1=O |

| melting point [°C] | Compound |
| --- | --- |
| 206 to 211 | COc1cc2c(cc1C(F)(F)F)N(C(=O)Nc1ccc3c(ccn3-c3ccncc3)c1)CC2 |
| 50 to 52 | Cc1oc(-c2ccc(F)cc2)cc1C(C)O (stereo unspecified) |
| 240 to 244 | CC(=O)Nc1ccc(S(=O)(=O)c2cccc3cnccc23)cc1 |
| 204 | O=C(O)c1cc(OCc2ccccc2)c(OCc2ccccc2)cn1 |
| 227 to 228 | O=C1c2c(O)cncc2C(=O)c2c(Cl)ccc(F)c21 |
| 112 to 113 | CC(C)Cn1c(CO)c(OCCCC(F)(F)F)c2cc(OCc3ccccc3)ccc2c1=O |
| 75 to 76 | Fc1cc2c(Cl)ncnc2cn1 |
| 261 to 264 | O=C(O)c1ccc(-c2ccc3cc(O)c(C45CC6CC(CC(C6)C4)C5)cc3c2)cc1O |
| 182 to 184 | O=C1C(Nc2ccccc2)=CC(=O)c2ncccc21 |
| 151 to 154 | CCCCNCC(O)COc1ccc(-c2nc(C(F)(F)F)c[nH]2)cc1 (stereo unspecified) |
| 260 to 263 | Clc1ccc2nc(-c3ccco3)c(I)n2n1 |
| 219 to 220 | O=C(Nc1ccc(-c2nc(-c3ccco3)no2)c(Cl)c1)OCC(Cl)(Cl)Cl |
| 211 | NS(=O)(=O)c1cccc(-c2cccc(-c3nc(-c4ccc(C(F)(F)F)nc4)cc(C(F)(F)F)n3)c2)c1 |
| 180 to 182 | O=C1N(Cc2ccccn2)c2ccccc2C12COc1ccc3nonc3c12 (stereo unspecified) |
| 58 to 60 | CC(C)(COc1ccc(Cl)cc1)C(=O)C(CC1CCCCC1)n1cncn1 (stereo unspecified) |
| 245 to 246 | N#CCCNC(=O)c1n[nH]cc1NC(=O)c1ccc(C(F)(F)F)cc1 |
| 126 to 128 | CC(C)CN(C)c1cc(F)cc(C(=O)Nc2ccc(OCCN3CCOCC3)c3ccccc23)c1 |
| 191 to 193 | COC(=O)c1ccc(Cn2c(=O)c(C)c3sc(C(=O)NCc4ccc(F)cc4)cn3c2=O)cc1OC |
| 204 | CSc1nc(-n2cnc([N+](=O)[O-])n2)c2cc(Br)ccc2n1 |

More lines, now with the values behind:

| Compound | melting point [°C] |
| --- | --- |
| c1ccc(C(c2ccccc2)N2CC2)cc1 | 56 to 58 |
| CN1CCN(C)c2c(N)cccc2C1=O | 165 to 166 |
| O=C(CC1CCC1)N[C@H]1CC[C@H](CCN2CCN(c3nccc4c3OCC4)CC2)CC1 | 148 |
| CC(=O)NCCNc1nc(-c2ccccc2)nc2[nH]c(C(=O)N3CCOCC3)cc12 | 250 |
| CCCCCC=CCC=CCCCCCCCCBr | 35 |
| COc1cc2c(cc1OC)CN(CCCCc1ccc(NC(=O)c3cccc4c(=O)cc(-c5ccccc5)oc34)cc1)CC2 | 117 to 120 |
| CC(C)Nc1cccnc1N1CCN(C(=O)c2ccc(C(=O)N(C(C)C)C(C)C)cc2)CC1 | 152 to 153 |
| Cc1c(O)ccc(S)c1C | 98 to 99 |
| CS(=O)(=O)NC1=CC(NC(=O)CCl)([N+](=O)[O-])CC=C1OC1CCCCC1 (stereo unspecified) | 208 to 210 |
| O=C(O)c1cc(=O)c2c(O)cccc2[nH]1 | 298 to 301 |
| Cc1ccc(NC(=O)OC2CN3CCC2CC3)cc1 (stereo unspecified) | 186 to 188 |
| CCn1nc(O)nc1Cl | 108 to 110 |
| CC1(C)CC(=O)CCc2ccc(Br)cc21 | 67 to 68 |
| C[C@H](O)[C@H](Cc1ccccc1)C(=O)NN | 167 |
| NS(=O)(=O)c1cc2cc(O)cnc2s1 | 270 to 271 |
| NS(=O)(=O)c1cc(C(=O)O)cc(NCc2ccccc2)c1Sc1ccccc1 | 224 to 225 |
| CCCn1nc2c(N)nc3ccccc3c2c1CC(C)(C)NC(=O)C(C)C | 177 to 178 |
| CCC(O)CNC(=O)c1n[nH]cc1NC(=O)c1ccccn1 (stereo unspecified) | 202 to 203 |
| Cn1ncc2c3[nH]ncc3ccc21 | 180 to 184 |
| O=C(OCC(F)(F)F)C(O)C(O)C(=O)OCC(F)(F)F (stereo unspecified) | 77 to 79 |
| CNCC1CN(c2c(F)cc3c(=O)c(C(=O)O)cn(C4CC4)c3c2F)CCO1 (stereo unspecified) | 257 to 259 |
| Cc1ccc(C(Cl)=NO)cc1 | 69 to 71 |

| Compound | melting point [°C] |
| --- | --- |
| Cc1nc2c(N)nc3ccccc3c2n1CCCNC(=O)C1CCCCC1 | 234 to 235 |
| CC(C)(C)c1ncc(C(C(=O)O)C(C)(C)C)cn1 (single isomer, unassigned; (+)) | 222 to 224 |
| Cc1cc2c(c(C)c1O)C(C)(C)CN2C(=O)C(C)(C)C | 143 to 144 |
| CSCc1cc(C(C)=O)c(O)cc1OCCCCCCC#N | 78 |
| CSc1nn2c(=O)cc(CCl)nc2s1 | 168 to 169 |
| CCCc1cc(Cl)c(OC(C(=O)O)c2ccccc2)c(C(C)=O)c1O (stereo unspecified) | 131 to 133 |
| Cc1cc2c(c3c1NC(=O)CC3)OC(CN)C2 (stereo unspecified) | > 300 |
| Cc1ccc(C)n1CCNC(=O)Nc1ccc(C(=O)O)cc1 | 248 to 250 |
| CCCCCCCCCCCCCCCCCCN(CCCCCCCCCCCCCCCCCC)CCCNC=O | 42 to 46 |
| CC(C)(C)C(=O)Nc1nc(O)c2cc(C#C[Si](C)(C)C)cnc2n1 | > 250 |
| Cc1ccc(S(=O)(=O)NC(=O)N2C(=O)C(C)N2C(c2ccccc2)c2ccccc2)cc1 (stereo unspecified) | 155 to 159 |
| CC(C)(C)OC(=O)c1ncn2c1[C@@H]1CCCN1C(=O)c1cc(Cl)ccc1-2 | 157 to 158 |
| CC(=O)OC1(c2nc3ccccc3s2)C=CC(=O)C=C1 | 101 |
| CC(C)n1c(=O)c(=O)[nH]c2ccccc21 | 227 to 228 |
| CC1(C)CCC2(CC1)CC(=O)N(CCCn1c(=O)sc3ccc(Cl)cc31)C2=O | 159 to 160 |
| CC(=NOCC(=O)O)c1ccc(Cl)c(Cl)c1 | 128 to 129 |
| Cc1nc(NC(=O)CCc2ccccc2)sc1C(=O)NCc1ccccc1 | 63 to 65 |
| O=S1(=O)NCc2ccccc2O1 | 89 to 90 |
| COc1ccc(S(=O)(=O)F)cc1NC(C)=O | 162 to 164 |
| CN(C)CCNC(=O)Oc1ccc(Cl)cc1Cn1nc(-c2ccc(C(F)(F)F)cc2)oc1=O | 158 to 159 |
| OCc1cnc2sc3ccccc3n12 | 183 to 184 |
| CCCCCCCCCCCCCCCCOC(=O)NCCN1CCOCC1 | 65 |
